Literature values, collected in patent US11826320B2, “Treating COVID 19 by using a mixture of cannabinoids in micellized form to lower levels of pro-inflammatory cytokines and reduce risk of cytokine storm” (WSMEF, LLC, priority 2020, dated 2023).

Experiments:
[1] = biological target: μ-opioid receptor (Homo sapiens, UniProt P35372)
[2] = biological target: T1, serotonin 5-HT1A receptor (Homo sapiens, UniProt P08908)
T1 sequence (P08908 1-422): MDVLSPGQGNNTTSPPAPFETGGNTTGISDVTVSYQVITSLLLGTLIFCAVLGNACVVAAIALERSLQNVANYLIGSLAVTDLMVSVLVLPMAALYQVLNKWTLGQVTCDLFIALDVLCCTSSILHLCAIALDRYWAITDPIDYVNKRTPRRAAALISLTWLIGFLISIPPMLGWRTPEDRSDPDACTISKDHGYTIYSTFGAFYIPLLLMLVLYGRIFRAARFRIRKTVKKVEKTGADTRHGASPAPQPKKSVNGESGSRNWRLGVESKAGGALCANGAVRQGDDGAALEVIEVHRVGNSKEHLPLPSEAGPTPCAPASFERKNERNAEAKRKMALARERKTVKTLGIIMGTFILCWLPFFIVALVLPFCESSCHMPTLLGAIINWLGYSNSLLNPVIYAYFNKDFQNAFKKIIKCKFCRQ

[3] = biological target: δ-opioid receptor (Homo sapiens, UniProt P41143)
Chain of δ-opioid receptor (P41143 whole entry): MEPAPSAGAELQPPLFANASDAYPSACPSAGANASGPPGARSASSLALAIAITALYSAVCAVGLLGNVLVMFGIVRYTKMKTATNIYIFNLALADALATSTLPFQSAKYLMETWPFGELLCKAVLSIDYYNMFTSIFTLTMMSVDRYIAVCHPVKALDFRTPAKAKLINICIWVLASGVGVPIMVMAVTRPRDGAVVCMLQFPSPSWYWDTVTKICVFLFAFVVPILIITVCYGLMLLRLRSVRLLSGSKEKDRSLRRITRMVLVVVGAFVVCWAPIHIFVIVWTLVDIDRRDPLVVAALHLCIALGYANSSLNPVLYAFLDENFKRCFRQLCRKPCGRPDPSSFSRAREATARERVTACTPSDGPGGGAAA

[4] = tested on: SARS-CoV-2; conditions: purified CBD
[5] = biological target: cannabinoid CB2 receptor (Homo sapiens, UniProt P34972)
Chain of cannabinoid CB2 receptor (P34972 whole entry): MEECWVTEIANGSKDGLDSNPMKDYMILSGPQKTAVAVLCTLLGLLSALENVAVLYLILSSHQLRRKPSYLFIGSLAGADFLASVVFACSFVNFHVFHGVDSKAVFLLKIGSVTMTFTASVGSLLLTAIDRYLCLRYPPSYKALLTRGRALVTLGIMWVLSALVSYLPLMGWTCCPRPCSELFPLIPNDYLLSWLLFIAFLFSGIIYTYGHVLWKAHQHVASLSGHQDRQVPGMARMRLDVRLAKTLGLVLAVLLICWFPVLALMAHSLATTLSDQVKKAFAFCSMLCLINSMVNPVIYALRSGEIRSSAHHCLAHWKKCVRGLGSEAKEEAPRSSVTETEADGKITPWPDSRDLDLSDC

Chain of μ-opioid receptor (P35372 whole entry): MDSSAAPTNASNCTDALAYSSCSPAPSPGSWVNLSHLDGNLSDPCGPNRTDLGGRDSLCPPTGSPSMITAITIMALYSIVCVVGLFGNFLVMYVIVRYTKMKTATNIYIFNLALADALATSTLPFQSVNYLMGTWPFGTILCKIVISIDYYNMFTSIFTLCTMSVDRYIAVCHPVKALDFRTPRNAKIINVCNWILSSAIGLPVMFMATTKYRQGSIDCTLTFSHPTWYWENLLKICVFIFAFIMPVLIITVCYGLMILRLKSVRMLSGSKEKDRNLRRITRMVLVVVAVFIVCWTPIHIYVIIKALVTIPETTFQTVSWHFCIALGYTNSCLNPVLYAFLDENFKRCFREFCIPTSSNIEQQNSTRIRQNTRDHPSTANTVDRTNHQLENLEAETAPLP

Structure (SMILES): C=C(C)[C@@H]1CCC(C)=C[C@H]1c1c(O)cc(CCCCC)cc1O [CBD, cannabidiol]
- action at μ-opioid receptor [1]: allosteric modulator
- action at 5-HT1A receptor [2]: partial agonist
- action at δ-opioid receptor [3]: allosteric modulator
- replication of SARS-CoV-2 [4]: inhibits replication
- affinity for CB2 receptor [5]: low affinity
